Where two headings read alike, the source gives them in different places.

Common to all, as to experiment: Cell growth inhibition assay, breast tumor cell line (Cell Titer Glo)
What all share (format): cell-based
For orientation: ATP-based viability assays read luminescence as a measure of living cells.

One assay concerns UACC893. Particulars: Homo sapiens, UACC-893, 72 h, UACC893 (HER2+), 3 days. Here is the method: (§1) Human tumor cell lines from hepatocellular carcinoma (HCC), C3A, Hep3B, HepG2, PLC/PRF/5, SNU182, SNU387, SNU398, SNU423, SNU449 and SNU475 were purchased from the ATCC. Human breast tumor cell lines, HCC2218, HCC1419, BT-474, SK-BR-3, UACC893, JIMT-1, MDA-MB-361, HCC202, MDA-MB-175-VII, HCC1569, HCC1937, HCC38, MDA-MB-157, HCC1954, HCC1500, BT483, KPL-1, SUM225 and ZR-75-1 from ATCC, SUM52 and SUM190 from Asterand, PLC (Detroit Mich.), were cultured in RPMI 1640 medium containing 10% FBS; SKBR3-W13 and BT-474-J4 cultured in RPMI 1640 medium containing 10% FBS and 1 μM lapatinib; KPL4 line was kindly provided by Dr Junichi Kurebayashi (Kawasaki Medical School, Okayama, Japan) and cultured in DMEM containing 5% FBS. JIMT-1 from European Collection of Cell Cultures (UK), is a line derived from a patient clinically resistant to trastuzumab (Herceptin®). SK-BR-3-W13 is a single cell clone isolated by a cloning cylinder after a single treatment of SK-BR-3 cells with 0.5 μM lapatinib. BT-474-J4 is a single cell clone derived from a pool of BT-474 cells that were selected to grow in lapatinib to a concentration of 3 μM.
(§2) Cells were seeded in a 96-well tissue culture plate (NUNC 136102) of RPMI medium containing 10% FBS at 500-2,000 cells per well. Approximately 24 hours after plating, cells were exposed to ten, two-fold or three-fold serial dilutions of either Compound A or B or the combination of the two agents at a 2:1 molar ratio (Compounds A and B respectively). In some cases, cells were grown in RPMI media containing 10% FBS and in the presence or absence of 2 ng/mL hepatocyte growth factor (HGF). Cells were incubated in the presence of compounds for 3 days. ATP levels were determined by adding Cell Titer Glo® (Promega) according to the manufacturer's protocol. Briefly, Cell Titer Glo® was added to each plate, incubated for 20 minutes then luminescent signal was read on the SpectraMax L plate reader with a 0.5 sec integration time. All assays were run at least in duplicate.
(§3) Inhibition of cell growth was estimated after treatment with compound or combination of compounds for three days and comparing the signal to cells treated with vehicle (DMSO). Cell growth was calculated relative to vehicle (DMSO) treated control wells. Concentration of compound that inhibits 50% of control cell growth (IC50) was back-interpolated when y=50% of DMSO treated control wells using nonlinear regression with the equation: […]
(§4) where A is the minimum response (ymin), B is the maximum response (Ymax), C is the inflection point of the curve (EC50) and D is the Hill coefficient.
(§5) Combination effects on potency were evaluated using the Combination Index (CI) and Excess Over Highest Single Agent (EHOSA) methods.
(§6) DNA Copy number data on the HER2 gene was collected for all breast cancer cell lines using the Affymetrix 500K chip (Affymetrix Inc, Sunnyvale, Calif.). Briefly DNA was extracted from each line, digested with the restriction enzyme Nsp or Sty, ligated to an adaptor and amplified by PCR. After PCR, DNA was fragmented, labeled, denatured, and hybridized to the Affymetrix 500K chip. Upon completion of hybridization, each assay was washed and stained. Image data were acquired. Similarly collected data from a panel 10 diploid non-tumorigenic lymphoblastic cell lines were used to calculate DNA copy number. All ‘SNP Chip’ images ('CEL files'), were extracted, read and normalized using the dChip software package (Lin et al. 2004. Bioinformatics. 20:1233-40). SNP-wise ‘copy-number ratios’ (log2 scale) were calculated for all cancer cell lines using the lymphoblastic reference panel and analyzed by circular binary segmentation to reduce noise (Olshen et al. 2004. Biostatistics. 5:557-72). Cell lines with log2 ratios of HER2>0.65 were considered HER2+.

A further assay deals with HCC1500. The settings on record: Homo sapiens, 72 h, HCC1500 (HER2−), 3 days. The protocol:
as §1, §2, §3, §4, §5, §6

In the next assay the test system is SK-BR-3. The settings on record: Homo sapiens, 72 h, SK-BR-3 (HER2+), 3 days. The protocol:
as §1, §2, §3, §4, §5, §6

The subject of another assay is HCC38. Particulars: Homo sapiens, 72 h, HCC38 (HER2−), 3 days. Here is the method:
as §1, §2, §3, §4, §5, §6

Another assay relates to HCC202. The settings on record: Homo sapiens, 72 h, HCC202 (HER2+), 3 days. The protocol: as §1, §2, §3, §4, §5, §6
A further assay has as its system HCC1419. Particulars: Homo sapiens, 72 h, HCC1419 (HER2+), 3 days. Here is the method:
as §1, §2, §3, §4, §5, §6

In the next assay the test system is BT483. The settings on record: Homo sapiens, BT-483, 72 h, BT483 (HER2−), 3 days. Here is the method: as §1, §2, §3, §4, §5, §6
For a further assay, the system named is SUM52. Particulars: Homo sapiens, 72 h, SUM52 (HER2−), 3 days. Here is the method:
as §1, §2, §3, §4, §5, §6

In the next assay the test system is SUM190. The settings on record: Homo sapiens, 72 h, SUM190 (HER2+), 3 days. Here is the method:
as §1, §2, §3, §4, §5, §6

The subject of a further assay is MDA-MB-157. Particulars: Homo sapiens, 72 h, MDA-MB-157 (HER2−), 3 days. Here is the method:
as §1, §2, §3, §4, §5, §6

The next assay concerns SK-BR-3-W13. Particulars: Homo sapiens, 72 h; SK-BR-3-W13 (HER2+), 3 days; read-out: Single agent IC50, Compound A. Here is the method: as §1, §2, §3, §4, §5, §6
The mark [1] stands for this setting: read-out: Single agent IC50, Compound B.
Where [2] appears, read: read-out: Single agent IC50, Compound A.

One may read the IC50 as the concentration needed to halve the response being measured. For `COc1ncc(-c2ccc3nccc(-c4ccnnc4)c3c2)cc1NS(=O)(=O)c1ccc(F)cc1F` [Compound B, 2,4-difluoro-N-{2-(methyloxy)-5-[4-(4-pyridazinyl)-6-quinolinyl]-3-pyridinyl}benzenesulfonamide], the half-inhibitory concentration (IC50) in the assay on UACC893 (setting [1]) was 3 ± 3 nM; in the assay with HCC1500 (setting [1]), 61 ± 36 nM; with SK-BR-3 (setting [1]) it was 24 ± 20 nM; in the assay on HCC38 (setting [1]), 95 ± 34 nM; in the assay on HCC202 (setting [1]), 45 ± 4 nM; in the assay with HCC1419 (setting [1]), 24 ± 14 nM. Further, the 50% inhibitory concentration (IC50) in the assay on BT483 (setting [1]) was 106 ± 81 nM; with SUM52 (setting [1]), 4 nM; in the assay on SUM190 (setting [1]), 6 ± 3 nM; in the assay with MDA-MB-157 (setting [1]) it was above 1000 nM.
`CC(=O)Nc1cccc(-n2c(=O)n(C3CC3)c(=O)c3c(Nc4ccc(I)cc4F)n(C)c(=O)c(C)c32)c1` [Compound A, N-{3-[3-cyclopropyl-5-[(2-fluoro-4-iodophenyl)amino]-6,8-dimethyl-2,4,7-trioxo-3,4,6,7-tetrahydropyrido[4,3-d]pyrimidin-1(2H)-yl]phenyl}acetamide]: the IC50 in the assay on UACC893 (setting [2]), with HCC1500 (setting [2]), in the assay on SK-BR-3 (setting [2]), in the assay with HCC38 (setting [2]), in the assay on HCC202 (setting [2]) and with HCC1419 (setting [2]) was above 1000 nM in each case. The half-maximal inhibitory concentration (IC50) was above 1000 nM in the assay on BT483 (setting [2]); 9 ± 5 nM with SUM52 (setting [2]); above 1000 nM with SUM190 (setting [2]); above 1000 nM in the assay on SK-BR-3-W13; above 1000 nM with MDA-MB-157 (setting [2]).
